≈ marks a conversion by molar mass, not a printed value. Calls of active or inactive are those of the source. The calls are words filed in the database; no cut-off is given here.
Experiments:
Acinetobacter baumannii [1] = test: Antimicrobial activity against Acinetobacter baumannii clinical isolate harboring chromosomally encoded ISAba1-blaOXA-51-like gene with fxsA upstream sequence by agar dilution method in presence of Tazobactam; type: functional, organism-based
Acinetobacter baumannii [2] = test: Antimicrobial activity against Acinetobacter baumannii clinical isolate harboring plasmid encoded ISAba1-blaOXA-51-like gene with nuc upstream sequence by agar dilution method in presence of Tazobactam; type: functional, organism-based
Acinetobacter baumannii [3] = test: Antimicrobial activity against Acinetobacter baumannii F-type isolate transformed with plasmid harboring ISAba1-blaOXA-82 by agar dilution method
Acinetobacter baumannii [4] = test: Antimicrobial activity against Acinetobacter baumannii ATCC 15151 transformed with plasmid harboring ISAba1-blaOXA-82 by agar dilution method; type: functional
Acinetobacter baumannii [5] = test: Antimicrobial activity against Acinetobacter baumannii F-type isolate by agar dilution method; type: functional
Acinetobacter baumannii [6] = test: Antimicrobial activity against Acinetobacter baumannii ATCC 15151 transformed with shuttle vector carrying beta-lactamase OXA-82 by agar dilution method; type: functional
Acinetobacter baumannii [7] = test: Antimicrobial activity against Acinetobacter baumannii ATCC 15151 by agar dilution method; type: functional

Compound	Activity (Acinetobacter baumannii [1])	Activity (Acinetobacter baumannii [2])	MIC (Acinetobacter baumannii [3]) [µg/mL]	MIC (Acinetobacter baumannii [4]) [µg/mL]	MIC (Acinetobacter baumannii [5]) [µg/mL]	MIC (Acinetobacter baumannii [6]) [µg/mL]	MIC (Acinetobacter baumannii [7]) [µg/mL]
CCN1CCN(C(=O)N[C@@H](C(=O)N[C@@H]2C(=O)N3[C@@H]2SC(C)(C)[C@@H]3C(=O)O)c2ccccc2)C(=O)C1=O	inactive	inactive	–	–	–	–	–
C[C@@H](O)[C@H]1C(=O)N2C(C(=O)O)=C(SCCNC=N)C[C@H]12 [IMIPENEM ANHYDROUS]	–	–	64 (≈ 214 µM)	32 (≈ 107 µM)	4 (≈ 13.4 µM)	2 (≈ 6.68 µM)	0.5 (≈ 1.67 µM)

Source: ChEMBL document CHEMBL1687787, “Emergence and Distribution of Plasmids Bearing the blaOXA-51-like gene with an upstream ISAba1 in carbapenem-resistant Acinetobacter baumannii isolates in Taiwan” (2010)
